The numbers were not newly measured in PMC10582678 (Clinical and Translational Science, 2023), which cites them from elsewhere.

The data set addresses BTK (Homo sapiens, UniProt Q06187). Particulars: cited from earlier work.

Each structure is given as a SMILES string. Read-outs that look alike come from different tables or passages of the source.

Sequence of BTK (Q06187 whole entry): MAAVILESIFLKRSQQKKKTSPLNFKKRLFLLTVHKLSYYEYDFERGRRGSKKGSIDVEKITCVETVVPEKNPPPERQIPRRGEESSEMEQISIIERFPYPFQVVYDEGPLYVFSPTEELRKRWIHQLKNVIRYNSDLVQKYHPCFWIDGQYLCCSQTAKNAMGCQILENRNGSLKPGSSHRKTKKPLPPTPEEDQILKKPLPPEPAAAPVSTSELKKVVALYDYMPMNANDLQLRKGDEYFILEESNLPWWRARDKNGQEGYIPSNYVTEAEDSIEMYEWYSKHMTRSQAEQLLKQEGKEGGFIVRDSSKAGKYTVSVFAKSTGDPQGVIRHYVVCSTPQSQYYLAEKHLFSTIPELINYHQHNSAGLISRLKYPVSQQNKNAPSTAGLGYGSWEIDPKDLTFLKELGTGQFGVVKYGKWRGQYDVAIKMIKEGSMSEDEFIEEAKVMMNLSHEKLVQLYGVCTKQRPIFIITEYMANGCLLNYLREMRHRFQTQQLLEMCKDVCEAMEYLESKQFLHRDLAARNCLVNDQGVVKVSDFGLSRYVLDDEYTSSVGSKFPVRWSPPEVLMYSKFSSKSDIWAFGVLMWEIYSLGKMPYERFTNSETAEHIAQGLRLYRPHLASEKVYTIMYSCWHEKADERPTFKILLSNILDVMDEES

As for `CC#CC(=O)N1CCC[C@H]1c1nc(-c2ccc(C(=O)Nc3ccccn3)cc2)c2c(N)nccn12` [acalabrutinib], under “twice daily dosing regimen”, the “BTK receptor occupancy rate” value was 96%.
With `C=CC(=O)Nc1cccc(Nc2nc(Nc3ccc(OCCOC)cc3)ncc2F)c1` [spebrutinib], the “BTK receptor occupancy rate” value (b.i.d., patients with rheumatoid arthritis) is given as 88%.
